In US20250051324A1, “PARP INHIBITOR, PHARMACEUTICAL COMPOSITION COMPRISING SAME, AND USE THEREOF” (KEYTHERA (SUZHOU) BIO-PHARMACEUTICALS CO., LIMITED, priority 2021, published 2025):
pIC50: −log10 of the molar value. Where two headings read alike, the source gives them in different places.

Columns and labels:
[1] = Evaluation of pharmacokinetics in rats; assay type: in vivo; conditions: male, SD, rat, plasma, 1 mg/kg, oral gavage (PO, 1 mpk)
Description: Test Animals: 6-8 Week Old Male SD Rats
Food was restored two hours after dosing.

[2] = target: PARP2 (Homo sapiens (Human), UniProt Q9UGN5); assay: PARP2 trapping assay; assay type: biochemical; conditions: read-out: Inhibitory Effect on PARP2 Trapping IC50
Procedure: (§1) [table] […] 1. A 4× enzyme reaction mixture, comprising PARP1, PARP2, and GST-Tb antibody, was prepared with the buffer and 4 μL of the enzyme reaction mixture was added to a 384-well plate. 2. A 4×PARP1 and PARP2 probe reaction mixture was prepared with the buffer and 4 μL of the probe reaction mixture was added to the 384-well plate. 3. A series of gradient-diluted compounds were prepared and 4 μL of the diluted compounds were added to the 384-well plate, and incubated at room temperature for 45 minutes. 4. After incubation, 4 μL of 4×NAD reaction mixture was added to the 384-well plate and incubated at room temperature for 10 minutes. 5. After incubation, the plate was read using a plate reader. 6. Data Analysis: The percentage inhibition rate was calculated as follows: Inhibition Rate (%)=(Reading of Compound Group−Reading of Blank Group)/(Reading of Vehicle Control Group−Reading of Blank Group).

[3] = target: T1, PARP1 (Homo sapiens (Human), UniProt P09874); assay: PARP1 trapping assay; assay type: biochemical; conditions: read-out: Inhibitory Effect on PARP1 Trapping IC50
Procedure: as §1

[4] = test system: MDA-MB-436 breast cancer cells; assay: Cell proliferation assay, MDA-MB-436; assay type: cell-based; conditions: Homo sapiens, MDA-MB-436, 168 h, read-out: MDA-MB-436 Cell IC50
Outline: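 Cells seeded 16 h, then exposed to a 9-point 1:3 compound dilution series for 7 days at 37° C., 5% CO2; DMSO-matched and cell-free controls. Viability by CellCounting-Lite luminescence; IC50 from log concentration versus % inhibition.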

[5] = Liver microsome metabolism assay; conditions: CD1, mouse, liver microsomes
[6] = target: T1, PARP1; assay: PARP enzyme activity assay (PARP1 chemiluminescent assay kit); assay type: biochemical; conditions: enzyme inhibitory activity, read-out: PARP-1 IC50
Outline: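 Chemiluminescent kit measuring PARP1 poly(ADP-ribosylation) of plate-coated histones in presence of activated DNA; compounds in 1:3 serial dilution, top 10 μM before 10-fold buffer dilution. Enzyme (2.5 ng/μL added) reacted 60 min at room temperature, detected by streptavidin-HRP luminescence; IC50 from log-concentration vs % inhibition.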

[7] = test system: UWB1.289 ovarian cancer cells; assay: Cell proliferation assay, UWB1.289; assay type: cell-based; conditions: UWB1289, 168 h, read-out: UWB1.289 Cell IC50
Procedure: Experimental Materials: MDA-MB-436 or UWB1.289 cell lines were purchased from Cobioer Biosciences Co. Ltd. (Nanjing, China). The STR identification results were a complete match, and mycoplasma testing was negative. MDA-MB-436 cells were cultured in DMEM complete medium containing 10% fetal bovine serum, 1% penicillin-streptomycin, 1% insulin, and 16 μg/mL glutathione; UWB1.289 cells were cultured in RMPI1640 complete medium containing 10% fetal bovine serum and 1% penicillin-streptomycin.
1. MDA-MB-436 or UWB1.289 cells were cultured in the aforementioned medium (culture conditions: 37° C., 5.0% CO2 in air) until they reached the logarithmic growth phase. The cells were then digested with trypsin containing 0.25% EDTA, centrifuged at 1000 rpm, and the supernatant was discarded. Cell culture medium was added, and the cell suspension was adjusted to 2×10^4/mL after counting. 135 μL of the cell suspension per well was taken and cultured in a 96-well cell culture plate for 16 hours (culture conditions: 37° C., 5.0% CO2 in air).
2. The test compounds, stored at a concentration of 10 mM, were diluted 2.5 times with DMSO and then serially diluted in a 1:3 gradient (9 gradients). The gradient-diluted samples were further diluted 40 times with serum-free medium, and 15 μL of each was added to the 96-well cell culture plate. The positive control group received serum-free medium containing the same concentration of DMSO, and the negative control group received medium without cells. The cells were then cultured for an additional 7 days.
3. After the culture period, the cell culture plate was placed at room temperature for 30 minutes. Then, 100 μL of CellCounting-Lite 2.0 reagent (Vazyme, #DD1101) was added to each well, mixed thoroughly, and incubated in the dark at room temperature for 10 minutes. The luminescence signal was read using a Synergy HTX multi-mode reader.
4. Data analysis was performed using GraphPad Prism 8.0 software. The inhibition rate (%) was calculated as 100*(average luminescence signal of the positive control group−luminescence signal of the compound)/(average luminescence signal of the positive control group−average luminescence signal of the negative control group). The IC50 value was obtained by plotting the logarithm of the compound concentration against the percentage inhibition rate.

[8] = Evaluation of pharmacokinetics in mice; conditions: male, ICR (CD1), mouse, plasma, po, 10 mg/kg
[9] = in vivo; conditions: male, ICR (CD1), mouse, po, 10 mg/kg
[10] = in vitro; conditions: CD1, mouse, microsomes

Chain of PARP2 (Q9UGN5 whole entry): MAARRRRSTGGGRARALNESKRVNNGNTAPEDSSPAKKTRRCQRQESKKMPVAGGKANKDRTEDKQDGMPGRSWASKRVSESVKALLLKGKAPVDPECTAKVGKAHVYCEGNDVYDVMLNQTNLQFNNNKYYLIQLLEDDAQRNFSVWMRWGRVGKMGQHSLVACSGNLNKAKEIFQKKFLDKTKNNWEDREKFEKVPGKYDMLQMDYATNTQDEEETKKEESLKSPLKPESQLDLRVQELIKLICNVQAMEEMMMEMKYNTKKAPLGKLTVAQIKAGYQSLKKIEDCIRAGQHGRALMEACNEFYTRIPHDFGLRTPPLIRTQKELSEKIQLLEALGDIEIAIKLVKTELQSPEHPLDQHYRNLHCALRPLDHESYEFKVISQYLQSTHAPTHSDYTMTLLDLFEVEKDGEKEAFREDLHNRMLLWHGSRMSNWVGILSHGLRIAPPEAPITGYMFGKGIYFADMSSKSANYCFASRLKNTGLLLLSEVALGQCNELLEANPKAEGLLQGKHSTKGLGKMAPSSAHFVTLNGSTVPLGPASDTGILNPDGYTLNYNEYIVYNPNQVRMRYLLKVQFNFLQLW
T1 sequence (P09874 whole entry): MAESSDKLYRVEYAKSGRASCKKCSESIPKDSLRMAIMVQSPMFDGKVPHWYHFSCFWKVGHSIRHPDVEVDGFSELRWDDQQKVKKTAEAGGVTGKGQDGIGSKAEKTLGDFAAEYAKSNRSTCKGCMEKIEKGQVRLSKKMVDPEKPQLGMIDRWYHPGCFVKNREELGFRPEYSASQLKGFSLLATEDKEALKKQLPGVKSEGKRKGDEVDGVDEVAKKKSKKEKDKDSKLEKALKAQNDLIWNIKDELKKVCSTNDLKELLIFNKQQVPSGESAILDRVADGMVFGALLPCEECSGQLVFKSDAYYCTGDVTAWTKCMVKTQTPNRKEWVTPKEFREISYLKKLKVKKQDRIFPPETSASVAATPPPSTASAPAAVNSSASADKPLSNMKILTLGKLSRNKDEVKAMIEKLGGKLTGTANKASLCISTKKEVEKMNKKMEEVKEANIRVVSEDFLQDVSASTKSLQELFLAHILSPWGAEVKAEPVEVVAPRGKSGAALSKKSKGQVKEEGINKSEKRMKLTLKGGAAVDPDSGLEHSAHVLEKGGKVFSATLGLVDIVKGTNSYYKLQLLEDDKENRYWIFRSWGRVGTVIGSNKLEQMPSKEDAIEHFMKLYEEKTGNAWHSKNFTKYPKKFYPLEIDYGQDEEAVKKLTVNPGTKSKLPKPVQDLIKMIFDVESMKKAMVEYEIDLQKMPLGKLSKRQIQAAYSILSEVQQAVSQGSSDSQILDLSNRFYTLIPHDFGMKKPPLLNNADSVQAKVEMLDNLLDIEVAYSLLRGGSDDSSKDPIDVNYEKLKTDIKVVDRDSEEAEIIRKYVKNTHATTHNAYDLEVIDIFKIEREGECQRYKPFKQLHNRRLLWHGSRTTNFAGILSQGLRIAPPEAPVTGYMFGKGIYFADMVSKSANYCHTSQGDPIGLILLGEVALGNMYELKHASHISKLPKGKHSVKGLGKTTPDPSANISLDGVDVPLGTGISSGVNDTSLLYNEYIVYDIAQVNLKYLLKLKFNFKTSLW

Compound	AUC(0-inf) [1] [µg·h/mL]	Cmax [1] [ng/mL]	half-life [1] [h]	pIC50 [2]	pIC50 [3]	pIC50 [4]	microsomal CLint at 1 µM [5] [µL/min/mg]	pIC50 [6]	pIC50 [7]	AUC(0-inf) [8] [µg·h/mL]	Cmax [8] [ng/mL]	half-life [8] [h]	pIC50 ([4]; proliferation, 7 days)	pIC50 ([7]; proliferation, 7 days)	AUC(0-inf) [9] [µg·h/mL]	Cmax [9] [ng/mL]	half-life [9] [h]	microsomal CLint at 1 µM [10] [µL/min/mg]
CNC(=O)c1ccc(N2CCN(Cc3cc4[nH]c(=O)c(C(F)(F)F)c(C)c4cn3)CC2)cn1 [Compound 2, N-methyl-5-(4-((4-methyl-2-oxo-3-(trifluoromethyl)-1,2-dihydro-1,6-naphthyridin-7-yl)methyl)piperazin-1-yl)picolinamide]	19.3	2000	5.07	6.86	8.91	8.63	0.39	8.50	8.56									
CNC(=O)c1ccc(C2=CCN(Cc3cnc4c(C)c(C(F)(F)F)c(=O)[nH]c4c3)CC2)cn1 [Compound 14, N-methyl-1′-((8-methyl-6-oxo-7-(trifluoromethyl)-5,6-dihydro-1,5-naphthyridin-3-yl)methyl)-1′,2′,3′,6′-tetrahydro-[3,4′-bipyridine]-6-carboxamide]	19.2	1770	6.35	6.75	8.86			9.08		2720	128000	27.8	8.62	8.31				
CNC(=O)c1ccc(N2CCN(Cc3cnc4c(C)c(C(F)(F)F)c(=O)[nH]c4c3)[C@@H](C)C2)cn1 [Compound 52, (S)—N-methyl-5-(3-methyl-4-((8-methyl-6-oxo-7-(trifluoromethyl)-5,6-dihydro-1,5-naphthyridin-3-yl)methyl)piperazin-1-yl)picolinamide]	18.8	1450	5.67	6.57	8.80					1550	50200	25.9	8.30	7.95				
CNC(=O)c1ccc(N2CCN(Cc3cnc4c(C)c(C(F)(F)F)c(=O)[nH]c4c3)C[C@H]2C)cn1 [Compound 54, (R)—N-methyl-5-(2-methyl-4-((8-methyl-6-oxo-7-(trifluoromethyl)-5,6-dihydro-1,5-naphthyridin-3-yl)methyl)piperazin-1-yl)picolinamide]	16.8	1690	7.2	6.72	8.88					987	48200	17.9	8.36	8.48				
CNC(=O)c1cnc(C2=CCN(Cc3cnc4c(C)c(C(F)(F)F)c(=O)[nH]c4c3)CC2)cn1 [Compound 79, N-methyl-5-(1-((8-methyl-6-oxo-7-(trifluoromethyl)-5,6-dihydro-1,5-naphthyridin-3-yl)methyl)-1,2,3,6-tetrahydropyridin-4-yl)pyrazine-2-carboxamide]													7.73		2420	57000	30.5	0.69
CNC(=O)c1ccc(C2=CCN(Cc3cc4[nH]c(=O)c(C(F)(F)F)c(C)c4cn3)CC2)cn1 [Compound 89, N-methyl-1′-((4-methyl-2-oxo-3-(trifluoromethyl)-1,2-dihydro-1,6-naphthyridin-7-yl)methyl)-1′,2′,3′,6′-tetrahydro-[3,4′-bipyridine]-6-carboxamide]					8.82								8.97					0.81
